Reference: patent US8754075B2, “1,3-oxazines as BACE1 and/or BACE2 inhibitors” (Hoffmann-La Roche Inc., priority 2011, dated 2014)

Legend:
[1] = molecular target: BACE1 (Homo sapiens (Human), UniProt P56817); assay: Cellular Aβ-lowering assay; format: cell-based; conditions: HEK293 cells stably expressing human APP wt (APP695); Aβ40 in supernatant by ELISA after 18-20 hrs
Description: Cellular Aβ-Lowering Assay: Human HEK293 cells which are stably transfected with a vector expressing a cDNA of the human APP wt gene (APP695) were used to assess the potency of the compounds in a cellular assay. The cells were seeded in 96-well microtiter plates in cell culture medium (Iscove, plus 10% (v/v) fetal bovine serum, glutamine, penicillin/streptomycin) to about 80% confluence and the compounds were added at a 10× concentration in 1/10 volume of medium without FCS containing 8% DMSO (final concentration of DMSO was kept at 0.8% v/v). After 18-20 hrs incubation at 37° C. and 5% CO2 in a humidified incubator the culture supernatant was harvested for the determination of Aβ40 concentrations. […] After blocking of non-specific binding sites with e.g. 1% BSA and washing, the culture supernatants were added in suitable dilutions together with a horseradish peroxidase-coupled Aβ detection antibody (e.g., antibody 4G8, Senetek, Maryland Heights, Mo.) and incubated for 5 to 7 hrs. Subsequently the wells of the microtiter plate were washed extensively with Tris-buffered saline containing 0.05% Tween 20 and the assay was developed with tetramethylbenzidine/H2O2 in citric acid buffer. After stopping the reaction with one volume […] the reaction was measured in an ELISA reader at 450 nm wavelength. The concentrations of Aβ in the culture supernatants were calculated from a standard curve obtained with known amounts of pure Aβ peptide.

[2] = molecular target: BACE2 (Rattus norvegicus (Rat), UniProt Q6IE75); assay: Assay for BACE inhibition by measuring cellular TMEM27 cleavage; format: cell-based; conditions: INS-TMEM27 (INS1e rat cell line, inducible hTMEM27); shed TMEM27 by ELISA
Description: Assay for BACE Inhibition by Measuring Cellular TMEM27 Cleavage:
The assay uses the principle of inhibition of human TMEM27 cleavage by endogenous cellular BACE2 in the Ins1e rat cell line and shedding from the cell surface into the culture medium, followed by detection in an ELISA assay Inhibition of BACE2 prevents the cleavage and shedding in a dose-dependent manner.
The stable cell line “INS-TMEM27” represents an INS1e-derived cell line with inducible expression (using the TetOn system) of full-length hTMEM27 in a doxycycline-dependent manner. The cells are cultured throughout the experiment in RPMI1640+Glutamax (Invitrogen) Penicillin/Streptomycin, 10% Fetal bovine serum, […], […], 100 micrograms/ml G418 and 100 microgram/ml hygromycin and are grown inadherent culture at 37° C. in a standard CO2 cell culture incubator.
INS-TMEM27 cells are seeded in 96-well plates. After 2 days in culture, BACE2 inhibitor is added in a range of concentrations as required by the assay and after a further two hours, doxycycline is added to a final concentration of 500 ng/ml. The cells are incubated for a further 46 hours and the supernatant harvested for detection of shed TMEM27.
An ELISA assay (using a pair of mouse anti-human-TMEM27 antibodies, raised against the extracellular domain of TMEM27) is used for detection of TMEM27 in the culture medium. An EC50 for BACE2 inhibition is calculated using the ELISA readout for each inhibitor concentration with standard curve-fitting software such as XLFit for the Excel spreadsheet program.

Chain of BACE2 (Q6IE75 63-514): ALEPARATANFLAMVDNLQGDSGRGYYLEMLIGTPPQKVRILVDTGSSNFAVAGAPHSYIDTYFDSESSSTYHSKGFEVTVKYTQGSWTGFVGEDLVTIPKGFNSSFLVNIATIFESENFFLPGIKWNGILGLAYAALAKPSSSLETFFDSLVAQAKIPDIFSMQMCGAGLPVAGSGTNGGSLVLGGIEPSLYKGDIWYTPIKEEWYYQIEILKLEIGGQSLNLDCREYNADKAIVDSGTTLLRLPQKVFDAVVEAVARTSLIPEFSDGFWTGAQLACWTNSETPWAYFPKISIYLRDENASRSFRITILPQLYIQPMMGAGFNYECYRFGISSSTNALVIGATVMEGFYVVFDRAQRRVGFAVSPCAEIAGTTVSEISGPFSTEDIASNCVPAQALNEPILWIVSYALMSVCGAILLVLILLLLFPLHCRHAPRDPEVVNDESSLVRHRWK
Chain of BACE1 (P56817 46-501): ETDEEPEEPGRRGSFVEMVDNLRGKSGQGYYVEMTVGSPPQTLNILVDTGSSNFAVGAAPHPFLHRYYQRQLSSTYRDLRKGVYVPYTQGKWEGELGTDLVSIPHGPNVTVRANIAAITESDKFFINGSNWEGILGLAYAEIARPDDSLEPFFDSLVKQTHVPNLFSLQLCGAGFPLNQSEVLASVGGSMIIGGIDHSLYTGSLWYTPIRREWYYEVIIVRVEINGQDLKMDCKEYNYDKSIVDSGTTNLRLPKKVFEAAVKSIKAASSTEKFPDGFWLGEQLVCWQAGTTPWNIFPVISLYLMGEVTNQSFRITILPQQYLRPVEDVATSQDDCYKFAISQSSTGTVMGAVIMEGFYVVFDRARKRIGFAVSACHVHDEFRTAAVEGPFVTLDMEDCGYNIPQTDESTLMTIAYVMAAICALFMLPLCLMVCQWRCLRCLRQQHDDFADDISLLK

| Compound | IC50 [1] [µM] | IC50 [2] [µM] |
| --- | --- | --- |
| C[C@]1(c2cc(NC(=O)c3ncc(Cl)cc3Cl)ccc2F)N=C(N)OC[C@@H]1OCC(F)(F)F [Example 48, 3,5-Dichloro-pyridine-2-carboxylic acid {3-[(4R,5R)-2-amino-4-methyl-5-(2,2,2-trifluoro-ethoxy)-5,6-dihydro-4H-[1,3]oxazin-4-yl]-4-fluoro-phenyl}-amide] | 0.003 | 0.067 |
| C[C@]1(c2cc(NC(=O)c3ncc(C#N)cc3Cl)ccc2F)N=C(N)OC[C@H]1F [Example 35, 3-Chloro-5-cyano-pyridine-2-carboxylic acid [3-((4R,5S)-2-amino-5-fluoro-4-methyl-5,6-dihydro-4H-[1,3]oxazin-4-yl)-4-fluoro-phenyl]-amide] | 0.082 | 0.511 |
| C[C@]1(F)COC(N)=N[C@]1(C)c1cc(NC(=O)C2CC2(F)F)ccc1F (stereo partly drawn) [Example 44, 2,2-Difluoro-cyclopropanecarboxylic acid [3-((4R,5R)-2-amino-5-fluoro-4,5-dimethyl-5,6-dihydro-4H-[1,3]oxazin-4-yl)-4-fluoro-phenyl]-amide] | 0.032 | 0.14 |
| C[C@]1(F)COC(N)=N[C@]1(C)c1cc(NC(=O)c2nn(CC(F)F)cc2Cl)ccc1F [Example 43, 4-Chloro-1-(2,2-difluoro-ethyl)-1H-pyrazole-3-carboxylic acid [3-((4R,5R)-2-amino-5-fluoro-4,5-dimethyl-5,6-dihydro-4H-[1,3]oxazin-4-yl)-4-fluoro-phenyl]amide] | 0.183 | 0.11 |
| C[C@]1(F)COC(N)=N[C@]1(C)c1cc(NC(=O)c2ccc(C#N)cn2)ccc1F [Example 38, 5-Cyano-pyridine-2-carboxylic acid [3-((4R,5R)-2-amino-5-fluoro-4,5-dimethyl-5,6-dihydro-4H-[1,3]oxazin-4-yl)-4-fluoro-phenyl]-amide] | 0.0004 | 0.023 |
